For assay [1], the target named is T1, Kras and SOS1 (biotin-tagged human Kras loaded with GDP, His-tagged human SOS1) (Homo sapiens, UniProt P01116, G12D).
T1 construct: made in house; host or cells: E. coli (stated for Kras only)
Put plainly: Protein-protein interaction inhibition between Kras and SOS1 (KrasGl2D-SOS PPI) using AlphaScreen. The format is binding. To be noted: AlphaScreen; biotin-tagged human Kras loaded with GDP, His-tagged human SOS1; read-out: KRAS G12D-SOS PPI IC50. The procedure, abridged:
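AlphaScreen format: Ni donor beads capture His-SOS1, streptavidin acceptor beads capture biotinylated Kras (E. coli-expressed, GDP-loaded post-purification). Excite 680 nm, read 520-620 nm.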

Assay [2] relates to Human pancreatic cancer cell line AsPC-1. Put plainly: Measurement of AsPC-1 cell growth inhibition (AsPC-1 CGI). It counts as cell-based. To be noted: 96 h. The procedure, abridged: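 AsPC-1 cells in 15% FBS RPMI-1640 were exposed to test compound for 96 hours at 37° C, with CellTiter-Glo as endpoint.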

Positions of bridges follow the written chain, without caps; N, C: chain ends. Non-standard residues stand in square brackets, D forms with d. Residues, ends and D or L forms follow the SMILES beside them. *: point of attachment. hPhe(3,5-F2-4-CF3) = N[C@@H](CCc1cc(F)c(C(F)(F)F)c(F)c1)C(=O)O; hPhe(3-Cl-4-CF3) = N[C@@H](CCc1ccc(C(F)(F)F)c(Cl)c1)C(=O)O; hPhe(3-F,4-CF3) = N[C@@H](CCc1ccc(C(F)(F)F)c(F)c1)C(=O)O; Piperazinyl(4-(3-oxetanyl)) = C1OCC1N1CCN(*)CC1; 3Oxa8azabicyclo(3.2.1)octane = C1CC2COCC1N2*; NMeAbu(4,4,4-F3) = CN[C@@H](CC(F)(F)F)C(=O)O; NMePhe(4-Me) = CN[C@@H](Cc1ccc(C)cc1)C(=O)O; NMeGly(cPent) = CN[C@H](C(=O)O)C1CCCC1; NMeGly(cBu) = CN[C@H](C(=O)O)C1CCC1; NMeCha = CN[C@@H](CC1CCCCC1)C(=O)O; NEtLeu = CCN[C@@H](CC(C)C)C(=O)O; NMeChg = CN[C@H](C(=O)O)C1CCCCC1; NMeI = CC[C@H](C)[C@H](NC)C(=O)O; NMeD = CN[C@@H](CC(=O)O)C(=O)O; NMeL = CN[C@@H](CC(C)C)C(=O)O; Oxazolidin(3-yl) = C1CN(*)CO1; NMeNva = CCC[C@H](NC)C(=O)O; NMeV = CN[C@H](C(=O)O)C(C)C; Iva = CC[C@](C)(N)C(=O)O; NMeA = CN[C@@H](C)C(=O)O; Piperidide = C1CCN(*)CC1; Pyrrolidide = C1CCN(*)C1; Ac5c = NC1(C(=O)O)CCCC1; Aze = O=C(O)[C@@H]1CCN1; X14 = CC1(C)CCN(*)C1; NEtG = CCNCC(=O)O; Sar = CNCC(=O)O

T1 sequence (P01116 1-188 isoform P01116-2 G12D): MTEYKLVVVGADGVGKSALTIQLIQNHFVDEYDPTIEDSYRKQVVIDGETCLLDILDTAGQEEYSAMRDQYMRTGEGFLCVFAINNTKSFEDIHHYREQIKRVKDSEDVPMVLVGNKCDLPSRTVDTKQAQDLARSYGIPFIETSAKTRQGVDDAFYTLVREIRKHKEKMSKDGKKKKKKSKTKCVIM

With `CC[C@H](C)[C@@H]1NC(=O)[C@H](CC(C)C)N(C)C(=O)C[C@@H](C(=O)N2C3CCC2COC3)N(C)C(=O)[C@H](C(C)C)N(C)C(=O)C2(CCCC2)NC(=O)[C@@H]2CCCN2C(=O)[C@H](CCc2ccc(C(F)(F)F)c(Cl)c2)NC(=O)CN(C)C(=O)[C@H](CC2CCCCC2)N(C)C(=O)[C@@H]2CCN2C(=O)[C@H](C)N(C)C1=O` [Compound 1235] ([NMeL]I[NMeA][Aze][NMeCha][Sar][hPhe(3-Cl-4-CF3)]P[Ac5c][NMeV][NMeD]-{3Oxa8azabicyclo(3.2.1)octane}; lactam N-11), the IC50 (commonly the concentration needed to halve the response being measured) in assay [1] is 5.5 nM; in assay [2] it was 100 to 500 nM.
On to `CC[C@H](C)[C@@H]1NC(=O)[C@H](CC(C)C)N(CC)C(=O)C[C@@H](C(=O)N(C)C)N(C)C(=O)[C@H](C2CCCC2)N(C)C(=O)C2(CCCC2)NC(=O)[C@@H]2CCCN2C(=O)[C@H](CCc2ccc(C(F)(F)F)c(F)c2)NC(=O)CN(C)C(=O)[C@H](CC2CCCCC2)N(C)C(=O)[C@@H]2CCN2C(=O)[C@H](C)NC1=O` [Compound 1252] ([NEtLeu]IA[Aze][NMeCha][Sar][hPhe(3-F,4-CF3)]P[Ac5c][NMeGly(cPent)][NMeD]-NMe2; lactam N-11), for which the IC50 in assay [1] is 2.5 nM; in assay [2], 100 to 500 nM.
The corresponding values for `CCC[C@H]1C(=O)N[C@@H]([C@@H](C)CC)C(=O)N(C)CC(=O)N(C)CC(=O)N(C)[C@@H](CC2CCCCC2)C(=O)N(C)CC(=O)N[C@@H](CCc2cc(F)c(C(F)(F)F)c(F)c2)C(=O)N2CCC[C@H]2C(=O)NC2(CCCC2)C(=O)N(C)[C@@H](C2CCCCC2)C(=O)N(C)[C@H](C(=O)N2CCCC2)CC(=O)N1C` [Compound 1253] ([NMeNva]I[Sar][Sar][NMeCha][Sar][hPhe(3,5-F2-4-CF3)]P[Ac5c][NMeChg][NMeD]-Pyrrolidide; lactam N-11) are 0.81 nM and 20 to 50 nM.
For `CC[C@H](C)[C@@H]1NC(=O)[C@H](CC(C)C)N(C)C(=O)C[C@@H](C(=O)N2CCCCC2)N(C)C(=O)[C@H](C2CCCCC2)N(C)C(=O)C2(CCCC2)NC(=O)[C@@H]2CCCN2C(=O)[C@H](CCc2ccc(C(F)(F)F)c(Cl)c2)NC(=O)CN(C)C(=O)[C@H](CC2CCCCC2)N(C)C(=O)CN(C)C(=O)CN(CC)C1=O` [Compound 1255] ([NMeL]I[NEtG][Sar][NMeCha][Sar][hPhe(3-Cl-4-CF3)]P[Ac5c][NMeChg][NMeD]-Piperidide; lactam N-11) the same measures were 1.4 nM and 100 to 500 nM.
As to `CC[C@H](C)[C@@H]1NC(=O)[C@H](CC(C)C)N(C)C(=O)C[C@@H](C(=O)N2CCC(C)(C)C2)NC(=O)[C@H]([C@@H](C)CC)N(C)C(=O)C2(CCCC2)NC(=O)[C@@H]2CCCN2C(=O)[C@H](CCc2ccc(C(F)(F)F)c(Cl)c2)NC(=O)CN(C)C(=O)[C@H](CC2CCCCC2)N(C)C(=O)CN(C)C(=O)CN(C)C1=O` [Compound 1273] ([NMeL]I[Sar][Sar][NMeCha][Sar][hPhe(3-Cl-4-CF3)]P[Ac5c][NMeI]D-X14; lactam N-11), the IC50 in assay [1] is 7.2 nM; in assay [2], 100 to 500 nM.
Consider `CC[C@H](C)[C@@H]1NC(=O)[C@H](C2CCC2)N(C)C(=O)C[C@@H](C(=O)N2CCCC2)N(C)C(=O)[C@H](C2CCCCC2)N(C)C(=O)C2(CCCC2)NC(=O)[C@@H]2CCCN2C(=O)[C@H](CCc2cc(F)c(C(F)(F)F)c(F)c2)NC(=O)CN(C)C(=O)[C@H](CC2CCCCC2)N(C)C(=O)CN(C)C(=O)CN(C)C1=O` [Compound 1275] ([NMeGly(cBu)]I[Sar][Sar][NMeCha][Sar][hPhe(3,5-F2-4-CF3)]P[Ac5c][NMeChg][NMeD]-Pyrrolidide; lactam N-11), for which the IC50 in assay [1] was 0.65 nM; in assay [2], 20 to 50 nM.
As for `CC[C@H](C)[C@@H]1NC(=O)[C@H](CC(F)(F)F)N(C)C(=O)C[C@@H](C(=O)N2CCCC2)N(C)C(=O)[C@H](C2CCCCC2)N(C)C(=O)C2(CCCC2)NC(=O)[C@@H]2CCCN2C(=O)[C@H](CCc2cc(F)c(C(F)(F)F)c(F)c2)NC(=O)CN(C)C(=O)[C@H](Cc2ccc(C)cc2)N(C)C(=O)CN(C)C(=O)CN(C)C1=O` [Compound 1278] ([NMeAbu(4,4,4-F3)]I[Sar][Sar][NMePhe(4-Me)][Sar][hPhe(3,5-F2-4-CF3)]P[Ac5c][NMeChg][NMeD]-Pyrrolidide; lactam N-11), the IC50 in assay [1] is 0.65 nM; in assay [2], 20 to 50 nM.
For the molecule `CC[C@H](C)[C@@H]1NC(=O)[C@H](CC(C)C)N(C)C(=O)C[C@@H](C(=O)N2CCN(C3COC3)CC2)N(C)C(=O)[C@H](C2CCCCC2)N(C)C(=O)C2(CCCC2)NC(=O)[C@@H]2CCCN2C(=O)[C@H](CCc2ccc(C(F)(F)F)c(Cl)c2)NC(=O)CN(C)C(=O)[C@H](CC2CCCCC2)N(C)C(=O)CN(C)C(=O)CN(C)C1=O` [Compound 1284] ([NMeL]I[Sar][Sar][NMeCha][Sar][hPhe(3-Cl-4-CF3)]P[Ac5c][NMeChg][NMeD]-{Piperazinyl(4-(3-oxetanyl))}; lactam N-11), the IC50 is 0.69 nM in assay [1] and 100 to 500 nM in assay [2].
Turning to `CC[C@H](C)[C@@H]1NC(=O)[C@H](CC(C)C)N(C)C(=O)C[C@@H](C(=O)N2CCCCC2)N(C)C(=O)[C@H](C2CCCCC2)N(C)C(=O)[C@](C)(CC)NC(=O)[C@@H]2CCCN2C(=O)[C@H](CCc2ccc(C(F)(F)F)c(Cl)c2)NC(=O)CN(C)C(=O)[C@H](CC2CCCCC2)N(C)C(=O)CN(C)C(=O)CN(C)C1=O` [Compound 1302] ([NMeL]I[Sar][Sar][NMeCha][Sar][hPhe(3-Cl-4-CF3)]P[Iva][NMeChg][NMeD]-Piperidide; lactam N-11), the IC50 was 0.75 nM in assay [1] and 100 to 500 nM in assay [2].
With `CC[C@H](C)[C@@H]1NC(=O)[C@H](CC(C)C)N(C)C(=O)C[C@@H](C(=O)N2CCCCC2)N(C)C(=O)[C@H](C2CCCCC2)N(C)C(=O)C2(CCCC2)NC(=O)[C@@H]2CCCN2C(=O)[C@H](CCc2ccc(C(F)(F)F)c(Cl)c2)NC(=O)CN(C)C(=O)[C@H](CC2CCCCC2)N(C)C(=O)CN(C)C(=O)CNC1=O` [Compound 1315] ([NMeL]IG[Sar][NMeCha][Sar][hPhe(3-Cl-4-CF3)]P[Ac5c][NMeChg][NMeD]-Piperidide; lactam N-11), the IC50 in assay [1] was 1 nM; in assay [2], 100 to 500 nM.
The corresponding values for `CC[C@H](C)[C@@H]1NC(=O)[C@H](CC(C)C)N(C)C(=O)C[C@@H](C(=O)N2CCC(C)(C)C2)N(C)C(=O)[C@H](C(C)C)N(C)C(=O)C2(CCCC2)NC(=O)[C@@H]2CCCN2C(=O)[C@H](CCc2ccc(C(F)(F)F)c(Cl)c2)NC(=O)CN(C)C(=O)[C@H](CC2CCCCC2)N(C)C(=O)[C@@H]2CCN2C(=O)[C@H](C)N(C)C1=O` [Compound 1323] ([NMeL]I[NMeA][Aze][NMeCha][Sar][hPhe(3-Cl-4-CF3)]P[Ac5c][NMeV][NMeD]-X14; lactam N-11) are 4.3 nM and 100 to 500 nM.
In the case of `CC[C@H](C)[C@@H]1NC(=O)[C@H](CC(C)C)N(C)C(=O)C[C@@H](C(=O)N2CCOC2)N(C)C(=O)[C@H](C(C)C)N(C)C(=O)C2(CCCC2)NC(=O)[C@@H]2CCCN2C(=O)[C@H](CCc2ccc(C(F)(F)F)c(Cl)c2)NC(=O)CN(C)C(=O)[C@H](CC2CCCCC2)N(C)C(=O)[C@@H]2CCN2C(=O)[C@H](C)N(C)C1=O` [Compound 1329] ([NMeL]I[NMeA][Aze][NMeCha][Sar][hPhe(3-Cl-4-CF3)]P[Ac5c][NMeV][NMeD]-{Oxazolidin(3-yl)}; lactam N-11), the IC50 in assay [1] was 1.7 nM; in assay [2], 100 to 500 nM.

The values are drawn from patent publication US12371454B2, “Cyclic peptide compound having Kras inhibitory action” (priority 2019, dated 2025).
